How the values were obtained:
Experiment in all cases: relative viability (nuclei count vs DMSO), 5 days (fraction); higher = more cells survive
[1] = compound: CC(C)(C)c1nc(-c2cccc(NS(=O)(=O)c3c(F)cccc3F)c2F)c(-c2ccnc(N)n2)s1 [Dabrafenib] + O=C(c1cc(Cc2n[nH]c(=O)c3ccccc23)ccc1F)N1CCN(C(=O)C2CC2)CC1 [Olaparib] (partner 8 µM)
Outline: (§1)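 A single step with final 0.05% Triton X-100, 1% formaldehyde and 1 ug/ml Hoechst fixed the cells and stained nuclei 5 days after treatment. Lung cancer cell lines in 1536-well plates had been treated by pin tool the day after seeding with one drug alone or a fixed anchor-drug dose plus five library-drug doses (not always all listed) in √10 steps, and nuclei were counted on 4× images. Relative viability is the ratio of nuclei in treated wells to nuclei in vehicle wells, taken as the median of duplicate plates.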

[2] = compound: NC(=O)c1ccc(N(C(N)=O)c2c(F)cccc2F)nc1-c1ccc(F)cc1F [VX-702] + COc1cc2c(Oc3ccc(NC(=O)C4(C(=O)Nc5ccc(F)cc5)CC4)cc3F)ccnc2cc1OCCCN1CCOCC1 [Foretinib] (partner 0.25 µM)
Outline: as §1

[3] = compound: NC(=O)c1ccc(N(C(N)=O)c2c(F)cccc2F)nc1-c1ccc(F)cc1F [VX-702] + C[C@@H](Oc1cc(-c2cnn(C3CCNCC3)c2)cnc1N)c1c(Cl)ccc(F)c1Cl [Crizotinib] (partner 1 µM)
Outline: as §1

[4] = compound: CC(C)(C)c1nc(-c2cccc(NS(=O)(=O)c3c(F)cccc3F)c2F)c(-c2ccnc(N)n2)s1 [Dabrafenib] + NC(=O)Nc1cc(-c2cccc(F)c2)sc1C(=O)N[C@H]1CCCNC1 [AZD7762] (partner 0.2 µM)
Outline: as §1

Cell Line | relative viability ([1]; first compound 0.003 µM) | relative viability ([1]; first compound 0.009487 µM) | relative viability ([1]; first compound 0.03 µM) | relative viability ([1]; first compound 0.09487 µM) | relative viability ([1]; first compound 0.3 µM) | relative viability ([2]; first compound 0.02 µM) | relative viability ([2]; first compound 0.2 µM) | relative viability ([2]; first compound 0.6325 µM) | relative viability ([2]; first compound 2 µM) | relative viability ([3]; first compound 0.02 µM) | relative viability ([3]; first compound 0.2 µM) | relative viability ([3]; first compound 0.6325 µM) | relative viability ([3]; first compound 2 µM) | relative viability ([4]; first compound 0.003 µM) | relative viability ([4]; first compound 0.009487 µM) | relative viability ([4]; first compound 0.03 µM) | relative viability ([4]; first compound 0.09487 µM) | relative viability ([4]; first compound 0.3 µM)
PC-14 | 0.237 | 0.293 | 0.241 | 0.283 | 0.338 | 1.02 | 0.956 | 0.986 | 1.08 | 0.874 | 0.86 | 0.818 | 1.02 | 0.0746 | 0.375 | 0.363 | 0.297 | 0.414
RERF-LC-KJ | 0.907 | 1 | 0.895 | 0.774 | 0.932 | 0.995 | 0.923 | 0.984 | 0.934 | 0.876 | 0.849 | 0.825 | 0.875 | 0.871 | 1.01 | 0.907 | 0.916 | 1.35
ChaGo-K-1 | 0.458 | 0.413 | 0.404 | 0.312 | 0.455 | 0.867 | 0.892 | 0.893 | 0.901 | 1.09 | 1.1 | 1.21 | 1.23 | 0.303 | 0.839 | 0.855 | 0.698 | 0.879
H3255 | 0.632 | 0.568 | 0.626 | 0.573 | 0.595 | 1.01 | 0.781 | 0.89 | 0.855 | 0.774 | 1.09 | 0.855 | 0.86 | 0.791 | 0.94 | 0.908 | 0.758 | 1.16
NCI-H1755 | 0.845 | 0.819 | 0.788 | 0.859 | 0.886 | 0.93 | 0.952 | 0.807 | 0.944 | 0.919 | 0.784 | 0.894 | 0.972 | 0.331 | 0.446 | 0.353 | 0.435 | 0.471
NCI-H1651 | 0.177 | 0.186 | 0.176 | 0.147 | 0.165 | 0.814 | 0.794 | 0.824 | 0.803 | 0.79 | 0.889 | 0.831 | 0.935 | 0.25 | 0.466 | 0.461 | 0.43 | 0.451
NCI-H23 |  | 0.312 | 0.3 | 0.292 | 0.329 | 0.961 | 1.03 | 1.15 | 1.21 | 0.524 | 0.523 | 0.678 | 0.756 |  | 0.207 | 0.205 | 0.254 | 0.217
NCI-H650 |  | 0.381 | 0.341 | 0.189 | 0.287 | 1.01 |  | 1.11 | 1.25 | 0.669 |  | 0.761 | 1.04 |  | 1.08 | 0.82 | 0.663 | 0.724
LC-2-ad | 0.69 | 0.668 | 0.709 | 0.647 | 0.698 | 0.765 | 0.958 | 0.838 | 0.99 | 0.502 |  | 0.449 | 0.504 | 0.654 | 0.945 | 0.87 | 0.92 | 1.07
HCC-366 | 0.381 | 0.337 | 0.271 | 0.329 | 0.39 | 0.896 | 0.873 | 0.955 | 0.922 | 0.588 | 0.396 | 0.525 | 0.601 | 0.0302 | 0.288 | 0.29 | 0.309 | 0.16
PC-3 [JPC-3] |  | 1.24 | 1.18 | 1.07 | 1.24 | 1.11 | 1.02 | 1.1 | 1.05 | 0.974 | 0.966 | 1.03 | 1.04 |  | 1.02 | 0.857 | 1.02 | 1.07
NCI-H596 |  | 0.68 | 0.675 | 0.651 | 0.752 | 0.79 | 0.82 | 1.11 | 0.992 | 0.914 | 0.986 | 1.02 | 1.19 |  | 1.2 | 0.958 | 1.14 | 1.16
NCI-H441 |  | 0.609 | 0.609 | 0.334 | 0.588 | 0.955 | 0.774 | 0.984 | 1.12 | 0.715 | 0.707 | 0.711 | 0.838 |  | 1.22 | 1.02 | 1.03 | 1.34
LOU-NH91 |  | 0.923 | 0.918 | 0.889 | 0.969 | 0.94 | 0.973 | 0.994 | 0.704 | 0.711 | 0.741 | 0.786 | 0.659 |  | 0.768 | 0.734 | 0.725 | 0.827
NCI-H727 | 0.554 | 0.656 |  | 0.612 | 0.796 | 0.936 | 0.806 | 0.824 | 0.813 | 0.826 | 0.745 | 0.841 | 0.961 | 0.472 | 0.459 |  | 0.492 | 0.669
NCI-H2126 | 0.906 | 0.884 | 0.871 | 0.878 | 0.946 | 1.15 | 1.1 | 1.21 | 1.18 | 1.04 | 1.13 | 1.05 | 1.08 | 0.872 | 1.11 | 1.02 | 0.94 | 1.01
LCLC-97TM1 |  | 0.317 | 0.472 | 0.262 | 0.35 | 0.836 | 0.923 | 0.938 | 0.991 | 0.285 | 0.342 | 0.421 | 0.558 |  | 0.239 | 0.25 | 0.129 | 0.224
NCI-H460 | 0.493 | 0.398 | 0.397 | 0.362 | 0.385 | 1.06 | 0.998 | 1.12 | 1.08 | 0.835 | 0.951 | 0.958 | 1.05 | 0.282 | 0.616 | 0.546 | 0.556 | 0.493
NCI-H1993 | 1.17 | 1.1 | 1.09 | 1.06 | 1.31 | 0.717 | 0.773 | 0.754 | 0.693 | 0.882 | 0.717 | 0.852 | 0.792 | 0.555 | 0.968 | 0.792 | 0.716 | 0.826
